From patent publication US10849988B2, “Hydrogel for engineered immune response to D-chirality peptides” (THE REGENTS OF THE UNIVERSITY OF CALIFORNIA, priority 2016, dated 2020) come the findings set out here.

Where no end group is shown, it is not given here. [ ]: non-standard residue; d: D form.

For this experiment, the system named is macrophages. In words: In vitro macrophage assay, mRNA production of key markers of inflammation. The class given is cell-based. The source says: FIGS. 6A-6I show data from comparative studies on D and L peptides. […] Note: in 1:1 L/D samples the L gels are unlabeled. FIG. 6B) Quantification of CD11b positive cells (immune cells) within and around gel within a healed dermal wound bed at Day 21 (ex. FIG. 6A). FIG. 6C) Comparing cell recruitment into subcutaneously-injected gels as a function of adaptive immune competence (Balb/c) versus adaptive immune incompetence (Rag2gc−/−). FIG. 6D) Fraction of immune cell to total cell recruitment within a subcutaneously injected gels as a function of adaptive immune competence (Balb/c) versus adaptive immune incompetence (Rag2gc−/−). FIGS. 6E-I) mRNA production of key markers of inflammation within an in vitro macrophage assay upon exposure to DI water, Lipid Polysaccharide (LPS) 500 ug/mL, D-MMP crosslinker 500 ug/mL, and LPS+D-MMP.

“Gly Cys Arg Asp Gly Pro d-Gln Gly d-Ile d-Trp Gly Gln Asp Arg Cys Gly (GCRDGP[dQ]G[dI][dW]GQDRCG; cysteine pairing not given here) [D-MMP]”: where the note is “D-MMP crosslinker 500 ug/mL alone”, the “effect on macrophages (mRNA of key markers of inflammation) relative to the positive control (LPS)” value is “no direct effect”. Further, the “effect on macrophages (mRNA of key markers of inflammation) when combined with the positive control (LPS)” value (LPS+D-MMP, each 500 ug/mL) is on record as “some additive affects”.
